Common to all, as to assay type: cell-based
Assay [1] has as its system E. coli BW25113. Kind of assay: MIC, microdilution in 96-well plates. As to conditions: Escherichia coli, read-out: MIC. A digest of the protocol: (§1)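 Using LB medium and a 1:10000 starting inoculum, compounds were diluted stepwise by half in triplicate, DMSO serving as vehicle control. Shaking incubation ran 16-18 hours at 37° C. before wells were visually checked for turbidity to assign MIC.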

Assay [2] relates to Edwardsiella tarda. Kind of assay: MIC, microdilution in 96-well plates. A digest of the protocol:
as §1
(In general: Broth dilution looks for growth in wells or tubes with falling amounts of substance.)

Assay [3] relates to E. coli JW5503 (deltolC). Kind of assay: MIC, 20-strain panel. As to conditions: Escherichia coli. A digest of the protocol: as §1
Assay [4] has as its system E. coli MG1655. Kind of assay: MIC, 20-strain panel. As to conditions: Escherichia coli, read-out: MIC. A digest of the protocol:
as §1

In assay [5] the test system is Klebsiella pneumoniae subsp. pneumoniae. Kind of assay: MIC, 20-strain panel. A digest of the protocol: as §1
The test system of assay [6] is Salmonella enterica subsp. enterica typhimurium. Kind of assay: MIC, 20-strain panel. A digest of the protocol: as §1
Assay [7] relates to Shigella flexneri. Kind of assay: MIC, 20-strain panel. A digest of the protocol:
as §1

Assay [8] concerns Staphylococcus aureus subsp. aureus. Kind of assay: MIC, 20-strain panel. As to conditions: read-out: MIC. A digest of the protocol: as §1
Assay [9] has as its system Staphylococcus epidermidis. Kind of assay: MIC, 20-strain panel. A digest of the protocol: as §1
Assay [10] relates to Staphylococcus saprophyticus subsp. saprophyticus. Kind of assay: MIC, 20-strain panel. A digest of the protocol:
as §1

The subject of assay [11] is Streptococcus agalactiae. Kind of assay: MIC, 20-strain panel. A digest of the protocol: as §1
Assay [12] has as its system Streptococcus pyogenes. Kind of assay: MIC, 20-strain panel. A digest of the protocol:
as §1

The mark [13] stands for this setting: Klebsiella pneumoniae subsp. pneumoniae.
Where [14] appears, read: Salmonella enterica subsp. enterica Typhimurium.
The mark [15] stands for this setting: Staphylococcus aureus subsp. aureus.
The mark [16] stands for this setting: E: Klebsiella pneumoniae subsp. pneumoniae.
The mark [17] stands for this setting: F: Salmonella enterica subsp. enterica Typhimurium.
Where [18] appears, read: H: Staphylococcus aureus subsp. aureus.

In brackets after ≈: the same amount, converted by molar mass. Like-named read-outs stand apart in the source and are kept apart here. Bounds are passed on as bounds.

For orientation: MIC means the lowest concentration found to suppress growth. On to `CN1C(=O)Cc2cc(S(=O)(=O)N[C@@H]3CCN(Cc4ccc(-c5ccccc5)cc4)C3)ccc21` [Compound 180], for which the MIC is greater than 8 µg/mL in [1] (BW25113, E. coli BW25113); greater than 8 µg/mL in assay [2]; greater than 8 µg/mL in assay [3] (E. coli JW5503 (deltolC)); greater than 8 µg/mL in assay [4] (MG1655, E. coli MG1655); greater than 8 µg/mL in assay [5] (setting [13]); greater than 8 µg/mL in assay [6] (setting [14]). Further, the MIC in assay [7], in [8] (setting [15]), in [9], in [10], in [11] and in assay [12] was greater than 8 µg/mL each time.

As for `COc1ccccc1-c1ccc(CN2CC[C@@H](NS(=O)(=O)c3cccc(C#N)c3)C2)cc1` [Compound 127], the MIC was greater than 8 µg/mL in [1] (BW25113, B: E. coli BW25113); greater than 8 µg/mL in assay [2] (D: Edwardsiella tarda); 4 µg/mL (≈ 8.94 µM) in assay [3] (C: E. coli JW5503 (deltolC)); greater than 8 µg/mL in assay [4] (MG1655, A: E. coli MG1655); greater than 8 µg/mL in [5] (setting [16]); greater than 8 µg/mL in assay [6] (setting [17]). In addition, the MIC in assay [7] (G: Shigella flexneri), in assay [8] (setting [18]), in [9], in assay [10], in [11] and in [12] was greater than 8 µg/mL in each case.

Regarding `O=S(=O)(N[C@@H]1CCN(Cc2ccc(OC3CC3)cc2)C1)c1cnc2ccsc2c1` [Compound 158], the MIC in assay [1] (BW25113, E. coli BW25113) is greater than 8 µg/mL; in assay [2] it was greater than 8 µg/mL; in assay [3] (E. coli JW5503 (deltolC)), greater than 8 µg/mL; in assay [4] (MG1655, E. coli MG1655), greater than 8 µg/mL; in assay [5] (setting [13]) it was greater than 8 µg/mL; in assay [6] (setting [14]) it was greater than 8 µg/mL. The MIC in assay [7], in [8] (setting [15]), in [9], in assay [10], in assay [11] and in [12] was greater than 8 µg/mL in each case.

Regarding `CS(=O)(=O)c1ccc(Cl)c(S(=O)(=O)N[C@@H]2CCN(Cc3ccc(-c4ccccc4)cc3)C2)c1` [Compound 142], the MIC in assay [1] (BW25113, E. coli BW25113) is greater than 8 µg/mL; in assay [2], greater than 8 µg/mL; in assay [3] (E. coli JW5503 (deltolC)) it was 2 µg/mL (≈ 3.96 µM); in assay [4] (MG1655, E. coli MG1655), greater than 8 µg/mL; in assay [5] (setting [13]) it was greater than 8 µg/mL; in assay [6] (setting [14]), greater than 8 µg/mL. In addition, the MIC in [7], in assay [8] (setting [15]), in [9], in assay [10], in assay [11] and in assay [12] was greater than 8 µg/mL throughout.

Take `Cc1ccc(S(=O)(=O)N[C@@H]2CCN(Cc3ccc(OC4CC4)cc3)C2)cc1C#N` [Compound 162]: the minimal inhibitory concentration (MIC) in assay [1] (BW25113, E. coli BW25113) was greater than 8 µg/mL; in assay [2], greater than 8 µg/mL; in assay [3] (E. coli JW5503 (deltolC)), greater than 8 µg/mL; in assay [4] (MG1655, E. coli MG1655) it was greater than 8 µg/mL; in assay [5] (setting [13]) it was greater than 8 µg/mL; in assay [6] (setting [14]), greater than 8 µg/mL. The MIC in [7], in assay [8] (setting [15]), in assay [9], in assay [10], in assay [11] and in assay [12] was greater than 8 µg/mL in each case.

On to `COc1ccc(-c2ccc(CN3CC[C@@H](NS(=O)(=O)c4cccc(OC(F)(F)F)c4)C3)cc2)cc1` [Compound 74], for which the minimal inhibitory concentration (MIC) is greater than 8 µg/mL in assay [1] (BW25113, B: E. coli BW25113); greater than 8 µg/mL in assay [2] (D: Edwardsiella tarda); 8 µg/mL (≈ 15.8 µM) in assay [3] (C: E. coli JW5503 (deltolC)); greater than 8 µg/mL in assay [4] (MG1655, A: E. coli MG1655); greater than 8 µg/mL in assay [5] (setting [16]); greater than 8 µg/mL in assay [6] (setting [17]). Besides, the minimal inhibitory concentration (MIC) in assay [7] (G: Shigella flexneri), in assay [8] (setting [18]), in [9], in assay [10], in assay [11] and in [12] was greater than 8 µg/mL in each case.

On to `O=S(=O)(N[C@@H]1CCN(Cc2ccc(-c3ccc(Cl)cc3)cc2)C1)c1cccc(C(F)(F)F)c1` [Compound 102], for which the MIC in assay [1] (BW25113, B: E. coli BW25113) was greater than 8 µg/mL; in assay [2] (D: Edwardsiella tarda), greater than 8 µg/mL; in assay [3] (C: E. coli JW5503 (deltolC)), roughly 8 µg/mL (≈ 16.2 µM); in assay [4] (MG1655, A: E. coli MG1655), greater than 8 µg/mL; in assay [5] (setting [16]), greater than 8 µg/mL; in [6] (setting [17]), greater than 8 µg/mL. Moreover, the MIC in [7] (G: Shigella flexneri) is greater than 8 µg/mL; in [8] (setting [18]), 8 µg/mL (≈ 16.2 µM); in [9] it was 4 µg/mL (≈ 8.08 µM); in assay [10], greater than 8 µg/mL; in assay [11], greater than 8 µg/mL; in [12] it was roughly 8 µg/mL (≈ 16.2 µM).

For the origin of these results see patent publication US10253039B2, “Inhibitors of bacterial DNA gyrase with efficacy against gram-negative bacteria” (priority 2014, dated 2019).
